In US20230293517A1, “ANTAGONIST COMPOUNDS” (AdoRx Therapeutics Limited, priority 2020, published 2023):
Read-outs that look alike come from different tables or passages of the source.

Key:
[1] = target: human Adenosine A1 receptor (Homo sapiens (Human), UniProt P30542); assay: Adenosine receptor TR-FRET binding assay (A1); conditions: inhibition of binding of 100 nM CA200645, CHO cell membranes
Outline: (§1)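 CHO cell membranes carrying terbium-tagged human A1, A2a, A2b or A3 receptors were incubated 2 h at room temperature with compound and CA200645 tracer (A2b 30 nM; others 100 nM). Specific binding from time-resolved FRET ratios, minus 10 μM XAC background; IC50 converted to Ki (Cheng–Prusoff).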

[2] = target: human Adenosine A2a receptor (Homo sapiens (Human), UniProt P29274); assay: Adenosine receptor TR-FRET binding assay (A2a); conditions: inhibition of binding of 100 nM CA200645, CHO cell membranes
Outline: as §1

[3] = target: human Adenosine A2b receptor (Homo sapiens (Human), UniProt P29275); assay: Adenosine receptor TR-FRET binding assay (A2b)
Outline: as §1

[4] = target: human Adenosine A3 receptor (Homo sapiens (Human), UniProt P0DMS8); assay: Adenosine receptor TR-FRET binding assay (A3); conditions: inhibition of binding of 100 nM CA200645, CHO cell membranes
Outline: as §1

[5] = test system: human PBMCs; assay: CD3/CD28 stimulated IL-2 release NECA reversal assay in human PBMCs; assay type: cell-based; conditions: PBMC, 1 uM NECA, 24 hours, IL-2 in culture supernatant
Description: Biological Example—CD3/CD28 Stimulated IL-2 Release NECA Reversal Assay in Human PBMCs
Blood is drawn from healthy volunteers using sodium citrate as the anticoagulant (0.3% final concentration). After centrifugation of the blood over Histopaque-1077, PBMCs are collected from the Histopaque/plasma interface and washed twice in PBS (300 g for 10 mins at room temp). Cells are plated at 50,000 cells/well in 150 μl RPMI/10% FCS in 96-well cell culture plates that have been precoated with 1 ug/ml CD3 antibody. 50 μl diluted compound mix is added to the cells, to obtain final concentrations of 1 ug/ml CD28 antibody, 1 uM NECA and 0.003-10 μM adenosine receptor antagonist. Assay plates are incubated for 24 hours at 37° C. in a humidified incubator. Culture supernatant is tested for IL-2 levels using the human IL-2 Tissue Culture Kit (Meso Scale Discovery). Data for dose-response curves is calculated as % inhibition with 100% inhibition defined from no agonist control wells (+CD3/28-NECA)

[6] = test system: CD8+T cells in human whole blood; assay: Measurement of pCREB in CD8+T cells in human whole blood; assay type: cell-based; conditions: 3 μM NECA, rolipram
Description: Biological Example—Measurement of pCREB in CD8+T Cells in Human Whole Blood
Heparinised human whole blood was pre-incubated at 37° C. with serial dilutions of A2a antagonists for 20 min. and the phosphodiesterase inhibitor rolipram to amplify the pCREB response. The adenosine receptor agonist NECA is then added at a final concentration of 3 μM and following a 60 min incubation the blood is fixed and red blood cells lysed. White blood cells are isolated, permeabilized and stained with directly conjugated fluorescent antibodies to phospho-CREB (Alexa Fluor 488) and CD8 (Alexa Fluor 647) and the level of phospho-CREB in CD8+T cells is measured by FACS using a BD Accuri C6 Flow Cytometer.

[7] = TR-FRET, inhibition of binding of 30 nM CA200645, CHO cell membranes

Chain of human Adenosine A2a receptor (P29274 whole entry): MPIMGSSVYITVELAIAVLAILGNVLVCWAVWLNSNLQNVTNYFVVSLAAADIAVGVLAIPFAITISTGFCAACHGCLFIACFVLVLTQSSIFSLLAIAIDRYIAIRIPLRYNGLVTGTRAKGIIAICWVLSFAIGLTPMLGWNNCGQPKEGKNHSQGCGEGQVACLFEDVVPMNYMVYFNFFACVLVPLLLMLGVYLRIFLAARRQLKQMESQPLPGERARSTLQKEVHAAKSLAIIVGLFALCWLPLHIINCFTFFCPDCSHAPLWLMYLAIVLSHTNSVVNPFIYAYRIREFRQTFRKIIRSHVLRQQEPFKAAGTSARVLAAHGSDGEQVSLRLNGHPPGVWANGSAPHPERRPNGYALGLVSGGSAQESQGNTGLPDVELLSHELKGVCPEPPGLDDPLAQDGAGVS
Chain of human Adenosine A2b receptor (P29275 whole entry): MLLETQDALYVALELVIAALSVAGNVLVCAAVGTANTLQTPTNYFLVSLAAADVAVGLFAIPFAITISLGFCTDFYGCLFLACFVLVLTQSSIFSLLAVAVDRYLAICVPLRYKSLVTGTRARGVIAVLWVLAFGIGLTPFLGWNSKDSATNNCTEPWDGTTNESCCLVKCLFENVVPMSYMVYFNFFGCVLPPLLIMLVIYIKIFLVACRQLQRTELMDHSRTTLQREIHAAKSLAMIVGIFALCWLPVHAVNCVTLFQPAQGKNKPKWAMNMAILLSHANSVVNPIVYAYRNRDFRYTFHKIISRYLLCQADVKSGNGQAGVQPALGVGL
Chain of human Adenosine A1 receptor (P30542 whole entry): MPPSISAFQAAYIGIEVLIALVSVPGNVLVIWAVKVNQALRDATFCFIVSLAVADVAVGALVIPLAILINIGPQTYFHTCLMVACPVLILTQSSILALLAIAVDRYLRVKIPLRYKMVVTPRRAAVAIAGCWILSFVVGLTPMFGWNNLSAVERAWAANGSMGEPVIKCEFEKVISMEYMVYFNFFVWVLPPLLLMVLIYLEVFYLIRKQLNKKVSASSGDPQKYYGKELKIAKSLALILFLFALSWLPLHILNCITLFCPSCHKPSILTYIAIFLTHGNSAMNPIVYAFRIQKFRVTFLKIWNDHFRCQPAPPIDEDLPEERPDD
Chain of human Adenosine A3 receptor (P0DMS8 whole entry): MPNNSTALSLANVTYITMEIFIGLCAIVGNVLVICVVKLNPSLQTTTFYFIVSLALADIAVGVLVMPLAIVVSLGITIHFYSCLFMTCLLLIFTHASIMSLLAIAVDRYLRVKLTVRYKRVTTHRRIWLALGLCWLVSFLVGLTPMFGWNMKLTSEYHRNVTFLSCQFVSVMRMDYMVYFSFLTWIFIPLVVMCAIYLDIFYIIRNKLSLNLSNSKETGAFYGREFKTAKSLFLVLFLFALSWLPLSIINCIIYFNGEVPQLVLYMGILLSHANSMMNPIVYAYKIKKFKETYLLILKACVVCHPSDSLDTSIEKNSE

| Compound | Ki [1] | Ki [2] | Ki [3] | Ki [4] | IC50 [5] | IC50 [6] | Ki [3, 7] |
| --- | --- | --- | --- | --- | --- | --- | --- |
| Cc1cc(-c2sc(NC(=O)N3CCN(S(N)(=O)=O)CC3)nc2-c2cccc(C#N)c2)cc(C)n1 [Example 4.19, N-[4-(3-cyanophenyl)-5-(2,6-dimethyl-4-pyridyl)thiazol-2-yl]-4-sulfamoyl-piperazine-1-carboxamide] | 46 nM | 0.6 nM | 1.3 nM | 232 nM | 5.4 nM | 5520 nM | – |
| Cc1cc(-c2sc(NC(=O)N3CCC4(CC3)NC(=O)NC4=O)nc2-c2cccc(C#N)c2)cc(C)n1 [Example 4.20, N-[4-(3-Cyanophenyl)-5-(2,6-dimethyl-4-pyridyl)thiazol-2-yl]-2,4-dioxo-1,3,8-triazaspiro[4.5]decane-8-carboxamide] | 161 nM | 1.5 nM | – | 967 nM | 1.3 nM | 130 nM | 2.6 nM |
| Cc1cc(-c2sc(NC(=O)N3CC(CO)C3)nc2-c2cccc(C#N)c2)cc(C)n1 [Example 4.25, N-[4-(3-Cyanophenyl)-5-(2,6-dimethyl-4-pyridyl)thiazol-2-yl]-3-(hydroxymethyl)azetidine-1-carboxamide] | 14 nM | 0.12 nM | – | 120 nM | 1.1 nM | 50 nM | 1.8 nM |
| Cc1cc(-c2sc(NC(=O)N3CC(C#N)C3)nc2-c2cccc(C#N)c2)cc(C)n1 [Example 4.26, 3-Cyano-N-[4-(3-cyanophenyl)-5-(2,6-dimethyl-4-pyridyl)thiazol-2-yl]azetidine-1-carboxamide] | 4 nM | 0.05 nM | – | 130 nM | 0.4 nM | 20 nM | 0.4 nM |
| Cc1cc(-c2sc(NC(=O)N3CCC(C(N)=O)CC3)nc2-c2cccc(C#N)c2)cc(C)n1 [Example 4.29, N1-[4-(3-Cyanophenyl)-5-(2,6-dimethyl-4-pyridyl)thiazol-2-yl]piperidine-1,4-dicarboxamide] | 24 nM | 0.13 nM | – | 112 nM | 2.1 nM | 50 nM | 1.3 nM |
| Cc1cc(-c2sc(NC(=O)N3CC(O)C3)nc2-c2cccc(C#N)c2)cc(C)n1 [Example 4.30, N-[4-(3-Cyanophenyl)-5-(2,6-dimethyl-4-pyridyl)thiazol-2-yl]-3-hydroxy-azetidine-1-carboxamide] | 7 nM | 0.41 nM | – | 106 nM | 1.3 nM | 60 nM | 0.6 nM |
| Cc1cc(-c2sc(NC(=O)N3CCN[C@H](CO)C3)nc2-c2cccc(C#N)c2)cc(Cl)n1 [Example 5.2, (3S)-N-[5-(2-Chloro-6-methyl-4-pyridyl)-4-(3-cyanophenyl)thiazol-2-yl]-3-(hydroxymethyl)piperazine-1-carboxamide] | 40 nM | 0.84 nM | – | 70 nM | 20.2 nM | 1180 nM | 0.9 nM |
| Cc1cc(-c2sc(NC(=O)N3CCN[C@@H](C)C3)nc2-c2cccc(C#N)c2)cc(Cl)n1 [Example 5.4, (3S)-N-[5-(2-Chloro-6-methyl-4-pyridyl)-4-(3-cyanophenyl)thiazol-2-yl]-3-methyl-piperazine-1-carboxamide] | 111 nM | 1.03 nM | 5.8 nM | 33 nM | 71.8 nM | 1950 nM | – |
| Cc1cc(-c2sc(NC(=O)N3CCN[C@H](C)C3)nc2-c2cccc(C#N)c2)cc(Cl)n1 [Example 5.5, (3R)-N-[5-(2-Chloro-6-methyl-4-pyridyl)-4-(3-cyanophenyl)thiazol-2-yl]-3-methyl-piperazine-1-carboxamide] | 114 nM | 0.94 nM | – | 70 nM | 30.6 nM | 2690 nM | 2.4 nM |
| Cc1cc(-c2sc(NC(=O)N3C[C@@H]4C[C@H]3CN4)nc2-c2cccc(C#N)c2)cc(Cl)n1 [Example 5.6, (1S,4S)-N-[5-(2-Chloro-6-methyl-4-pyridyl)-4-(3-cyanophenyl)thiazol-2-yl]-2,5-diazabicyclo[2.2.1]heptane-2-carboxamide] | 22 nM | 2.13 nM | – | 31 nM | 30.5 nM | 720 nM | 4.2 nM |
| Cc1cc(-c2sc(NC(=O)N3CCN[C@H](C(N)=O)C3)nc2-c2cccc(C#N)c2)cc(Cl)n1 [Example 5.8, (3S)-N1-[5-(2-Chloro-6-methyl-4-pyridyl)-4-(3-cyanophenyl)thiazol-2-yl]piperazine-1,3-dicarboxamide] | 34 nM | 0.68 nM | – | 474 nM | 18.4 nM | 980 nM | 1.8 nM |
| Cc1cc(-c2sc(NC(=O)N3CCC(C)(N)CC3)nc2-c2cccc(C#N)c2)cc(Cl)n1 [Example 5.9, 4-Amino-N-[5-(2-chloro-6-methyl-4-pyridyl)-4-(3-cyanophenyl)thiazol-2-yl]-4-methyl-piperidine-1-carboxamide] | 82 nM | 2.32 nM | – | 125 nM | 18.3 nM | 1000 nM | 4.3 nM |
| Cc1cc(-c2sc(NC(=O)N3CCC4(CC3)CNC(=O)C4)nc2-c2cccc(C#N)c2)cc(C)n1 [Example 6.4, N-[4-(3-Cyanophenyl)-5-(2,6-dimethyl-4-pyridyl)thiazol-2-yl]-3-oxo-2,8-diazaspiro[4.5]decane-8-carboxamide] | 103 nM | 0.67 nM | – | 360 nM | 1.4 nM | 190 nM | 3.1 nM |
| Cc1cc(-c2sc(NC(=O)N3CCC4(CC3)COC4)nc2-c2cccc(C#N)c2)cc(C)n1 [Example 6.10, N-[4-(3-Cyanophenyl)-5-(2,6-dimethyl-4-pyridyl)thiazol-2-yl]-2-oxa-7-azaspiro[3.5]nonane-7-carboxamide] | 14 nM | 0.3 nM | – | 316 nM | 2.9 nM | 40 nM | 1.2 nM |
| Cc1cc(-c2sc(NC(=O)N3CCC4(CC3)CNC(=O)N4)nc2-c2cccc(C#N)c2)cc(C)n1 [Example 6.11, N-[4-(3-Cyanophenyl)-5-(2,6-dimethyl-4-pyridyl)thiazol-2-yl]-2-oxo-1,3,8-triazaspiro[4.5]decane-8-carboxamide] | 42 nM | 0.39 nM | – | 319 nM | 5.2 nM | 50 nM | 2.6 nM |
| Cc1cc(-c2sc(NC(=O)N3CCC4(CC3)CN(C)C(=O)O4)nc2-c2cccc(C#N)c2)cc(C)n1 [Example 6.12, N-[4-(3-Cyanophenyl)-5-(2,6-dimethyl-4-pyridyl)thiazol-2-yl]-3-methyl-2-oxo-1-oxa-3,8-diazaspiro[4.5]decane-8-carboxamide] | 137 nM | 0.23 nM | – | 298 nM | 2.7 nM | 110 nM | 2.4 nM |
| Cc1cc(-c2sc(NC(=O)N3CCN4CCS(=O)(=O)CC4C3)nc2-c2cccc(C#N)c2)cc(C)n1 (stereo not drawn) [Example 6.14, N-[4-(3-Cyanophenyl)-5-(2,6-dimethyl-4-pyridyl)thiazol-2-yl]-2,2-dioxo-3,4,6,7,9,9a-hexahydro-1H-pyrazino[2,1-c][1,4]thiazine-8-carboxamide] | 167 nM | 0.6 nM | – | 772 nM | 5.3 nM | 50 nM | 2.6 nM |
| Cc1cc(-c2sc(NC(=O)N3CCN4C(=O)OCCC4C3)nc2-c2cccc(C#N)c2)cc(C)n1 (stereo not drawn) [Example 6.17, N-[4-(3-Cyanophenyl)-5-(2,6-dimethyl-4-pyridyl)thiazol-2-yl]-6-oxo-1,3,4,8,9,9a-hexahydropyrazino[1,2-c][1,3]oxazine-2-carboxamide] | 35 nM | 0.46 nM | – | 405 nM | 5.3 nM | 70 nM | 6.5 nM |
| Cc1cc(-c2sc(NC(=O)N3CCN4C(=O)CCC4C3)nc2-c2cccc(C#N)c2)cc(C)n1 (stereo not drawn) [Example 6.18, N-[4-(3-Cyanophenyl)-5-(2,6-dimethyl-4-pyridyl)thiazol-2-yl]-6-oxo-1,3,4,7,8,8a-hexahydropyrrolo[1,2-a]pyrazine-2-carboxamide] | 70 nM | 0.33 nM | – | 332 nM | 5 nM | 40 nM | 6.1 nM |
